Converted amounts (≈) assume the structure as drawn. “And” between values parts separate entries of the source, which are not always exact repeats. Equal entries are not always repeated. Where two headings read alike, the source gives them in different places.
Columns and labels:
T. rubrum = assay: MIC, modified CLSI M38A broth dilution; assay type: cell-based, Trichophyton rubrum
Protocol: (§1) Minimum Inhibitory Concentration (MIC): Minimum inhibitory concentrations of synthetic and semisynthetic and natural products against dermatophytes were determined using a modification of the Clinical Laboratory Standards Institute (CLSI, formerly National Committee of Clinical Laboratory Standards, NCCLS) M38A standard method for dermatophytes, while MIC of these agents against Candida species were determined using the CLSI M27-A2 methodology. The method used to determine the MIC against bacteria was based on the CLSI document M7-A7.
(§2) For dermatophytes, serial dilutions of terbinafine, tolnaftate were prepared in a range of 0.004-2 μg/ml, while for miconazole concentrations ranged between 0.015-8 μg/ml. Finally, for essential oils, the concentrations tested were between 0.03-16 μg/ml. The only exception was tea tree oil where dilutions were prepared in a range of 0.0078-4 μg/ml. The MIC was read at 4 days post inoculation and defined as the lowest concentration of an agent to inhibit 80% of fungal growth as compared to the growth control (Table 2).

T. mentagrophytes [1] = assay: MIC, modified CLSI M38A broth dilution; assay type: cell-based, Trichophyton mentagrophytes
Protocol: as §1, §2

All dermatophytes [2] = assay: MIC, modified CLSI M38A, pooled dermatophytes; assay type: cell-based, E. floccosum, T. rubrum, T. mentagrophytes
Protocol: as §1, §2
(§3) In the following Tables, MIC50 and MIC90 are defined as the minimal concentrations of a compound that can inhibit 50% and 90% of the tested organisms, respectively.

E. floccosum = assay: Minimum fungicidal concentration (Canton et al.); assay type: cell-based, Epidermophyton floccosum; settings: for MFC: Epidermophyton floccosum
Protocol: (§4) Minimum fungicidal concentration (MFC): The minimum fungicidal concentrations of various agents were determined using the technique described by Canton et al. (Antimicrob Agents Chemother. 2004 8:2477-82). In that method, fungal conidia were collected following growth on potato dextrose agar (PDA) plates and were used to inoculate 96-well plates containing different concentrations of agents. Following incubation at 35° C. for 4 days (for dermatophytes) or 24 hours (for yeast), wells showing no visible growth were cultured to determine the MFC (defined as the lowest concentration of a given agent that kills>99.999% of fungal conidia or spores). The MFC value represents the level of the agent at which spores or conidia were killed.

T. mentagrophytes [3] = assay: Minimum fungicidal concentration (Canton et al.); assay type: cell-based, Trichophyton mentagrophytes; settings: for MFC: Trichophyton mentagrophytes
Protocol: as §4

All dermatophytes [4] = assay: Minimum fungicidal concentration, pooled dermatophytes; assay type: cell-based, E. floccosum, T. rubrum, T. mentagrophytes; settings: All dermatophytes, n = 18
Protocol: as §4, §3

C. albicans = assay: MIC, CLSI M27-A2; assay type: cell-based, Candida albicans
Protocol: as §1
(§5) The remaining essential oils were prepared in a dilution range of 0.03-16 μg/ml. For Candida the MIC was read at 24 hours and defined as the lowest concentration to inhibit 50% of fungal growth as compared to the growth control (Table 4).

C. parapsilosis = assay: MIC, CLSI M27-A2; assay type: cell-based, Candida parapsilosis
Protocol: as §1, §5

All yeasts = assay: MIC, CLSI M27-A2, pooled yeasts; assay type: cell-based, C. albicans, C. parapsilosis; settings: n = 12
Protocol: as §1, §5, §3

S. aureus = assay: MIC, CLSI M7-A7, Mueller-Hinton; assay type: cell-based, Staphylococcus aureus
Protocol: as §1
(§6) For bacterial species, the medium used to evaluate the antibacterial activity of agents and essential oils was Mueller-Hinton (Oxoid Ltd., Basingstoke, Hampshire, England). Serial dilutions of miconazole, terbinafine, and tolnaftate were prepared in a range of 0.125-64 μg/ml and serial dilutions of tea tree oil were prepared in a range of 0.0078-4 μg/ml, while those for the rest of the essential oils were prepared in a range 0.031-16 μg/ml.

S. epidermidis = assay: MIC, CLSI M7-A7, Mueller-Hinton; assay type: cell-based; settings: for MIC: read-out: MIC
Protocol: as §1, §6

[5] = test system: All bacteria (Staphylococcus species); assay: MIC, CLSI M7-A7, pooled bacteria; assay type: cell-based, S. aureus, S. epidermidis
Protocol: as §1, §6, §3

[6] = Trichophyton rubrum, T. rubrum, n = 6
[7] = Trichophyton mentagrophytes, T. mentagrophytes, n = 6
[8] = Candida albicans, C. albicans, n = 6
[9] = Lodderomyces parapsilosis, C. parapsilosis, n = 6
[10] = Staphylococcus aureus, S. aureus
[11] = Staphylococcus epidermidis, S. epidermidis, n = 6

MIC Range (T. rubrum; T. rubrum, n = 6): 0.008 to 0.015 µg/mL
MIC (T. rubrum; Trichophyton rubrum, T. rubrum strain 1967): 0.015 µg/mL (≈ 0.0515 µM)
MIC (T. rubrum; Trichophyton rubrum, T. rubrum strain 2098): 0.015 µg/mL (≈ 0.0515 µM)
MIC (T. rubrum; Trichophyton rubrum, T. rubrum strain 2246): 0.008 µg/mL (≈ 0.0275 µM)
MIC (T. rubrum; Trichophyton rubrum, T. rubrum strain 8063): 0.015 µg/mL (≈ 0.0515 µM)
MIC (T. rubrum; Trichophyton rubrum, T. rubrum strain 8071): 0.015 µg/mL (≈ 0.0515 µM)
MIC (T. rubrum; Trichophyton rubrum, T. rubrum strain 8092): 0.015 µg/mL (≈ 0.0515 µM)
MIC50 (T. rubrum; [6]): 0.015 µg/mL (≈ 0.0515 µM)
MIC90 (T. rubrum; [6]): 0.015 µg/mL (≈ 0.0515 µM)
MIC Range (T. mentagrophytes [1]; T. mentagrophytes, n = 6): 0.004 to 0.03 µg/mL
MIC (T. mentagrophytes [1]; Trichophyton mentagrophytes, T. mentagrophytes strain 1720): 0.004 µg/mL (≈ 0.0137 µM)
MIC (T. mentagrophytes [1]; Trichophyton mentagrophytes, T. mentagrophytes strain 2124): 0.03 µg/mL (≈ 0.103 µM)
MIC (T. mentagrophytes [1]; Trichophyton mentagrophytes, T. mentagrophytes strain 2125): 0.03 µg/mL (≈ 0.103 µM)
MIC (T. mentagrophytes [1]; Trichophyton mentagrophytes, T. mentagrophytes strain 2126): 0.004 µg/mL (≈ 0.0137 µM)
MIC (T. mentagrophytes [1]; Trichophyton mentagrophytes, T. mentagrophytes strain 2127): 0.03 µg/mL (≈ 0.103 µM)
MIC (T. mentagrophytes [1]; Trichophyton mentagrophytes, T. mentagrophytes strain 2128): 0.03 µg/mL (≈ 0.103 µM)
MIC50 (T. mentagrophytes [1]; [7]): 0.03 µg/mL (≈ 0.103 µM)
MIC90 (T. mentagrophytes [1]; [7]): 0.03 µg/mL (≈ 0.103 µM)
MIC50 (All dermatophytes [2]; n = 18): 0.03 µg/mL (≈ 0.103 µM)
MIC90 (All dermatophytes [2]; n = 18): 0.06 µg/mL (≈ 0.206 µM)
MIC Range (All dermatophytes [2]; n = 18): 0.015 µg/mL and 0.008 to 0.015 µg/mL
MIC Range (All dermatophytes [2]; n = 18, listed as terbinafine): 0.008 to 0.06 µg/mL
MIC (C. albicans; C. albicans strain 8280 (multi-resistant)): >64 µg/mL
MIC (C. albicans; Candida albicans, 24 h, C. albicans strain 1740, 50% inhibition, 24 hours, read-out: MIC): 1 µg/mL (≈ 3.43 µM)
MIC (C. albicans; Candida albicans, C. albicans strain 2108, read-out: MIC): 0.5 µg/mL (≈ 1.72 µM)
MIC (C. albicans; Candida albicans, C. albicans strain 2153, read-out: MIC): 0.5 µg/mL (≈ 1.72 µM)
MIC (C. albicans; Candida albicans, C. albicans strain 8280 (multi-resistant), read-out: MIC): ≥ 64 µg/mL
MIC (C. albicans; Candida albicans, C. albicans strain 8283, read-out: MIC): 0.5 µg/mL (≈ 1.72 µM)
MIC (C. albicans; Candida albicans, C. albicans strain 8364, read-out: MIC): 2 µg/mL (≈ 6.86 µM)
MIC (C. albicans; Candida albicans, C. albicans, 5 strains, read-out: MIC values): 0.5 to 2 µg/mL (≈ 1.72 to 6.86 µM)
MIC50 (C. albicans; [8]): 0.5 µg/mL (≈ 1.72 µM)
MIC90 (C. albicans; [8]): 2 µg/mL (≈ 6.86 µM)
MIC Range (C. parapsilosis; C. parapsilosis, n = 6): 0.25-0.25 μg/mL
MIC Range (C. parapsilosis; C. parapsilosis, n = 6, listed as terbinafine): 0.25 µg/mL (≈ 0.858 µM)
MIC (C. parapsilosis; Lodderomyces parapsilosis, C. parapsilosis strain 7629): 0.25 µg/mL (≈ 0.858 µM)
MIC (C. parapsilosis; Lodderomyces parapsilosis, C. parapsilosis strain 7668): 0.25 µg/mL (≈ 0.858 µM)
MIC (C. parapsilosis; Lodderomyces parapsilosis, C. parapsilosis strain 7672): 0.25 µg/mL (≈ 0.858 µM)
MIC (C. parapsilosis; Lodderomyces parapsilosis, C. parapsilosis strain 7995): 0.25 µg/mL (≈ 0.858 µM)
MIC (C. parapsilosis; Lodderomyces parapsilosis, C. parapsilosis strain 8148): 0.25 µg/mL (≈ 0.858 µM)
MIC (C. parapsilosis; Lodderomyces parapsilosis, C. parapsilosis strain 8442): 0.25 µg/mL (≈ 0.858 µM)
MIC50 (C. parapsilosis; [9]): 0.25 µg/mL (≈ 0.858 µM)
MIC90 (C. parapsilosis; [9]): 0.25 µg/mL (≈ 0.858 µM)
MIC50 (All yeasts): 0.25 µg/mL (≈ 0.858 µM)
MIC90 (All yeasts): 2 µg/mL (≈ 6.86 µM)
MIC (S. aureus; S. aureus strain 733): >64 µg/mL
MIC (S. aureus; S. aureus strain 734): >64 µg/mL
MIC (S. aureus; S. aureus strain 8470): >64 µg/mL
MIC Range (S. aureus; S. aureus, n = 6): >64 µg/mL
MIC50 (S. aureus; [10]): > 64 µg/mL
MIC90 (S. aureus; [10]): > 64 µg/mL
MIC (S. aureus; Staphylococcus aureus, S. aureus strain 730, 80% inhibition, 16 h, read-out: MIC): > 64 µg/mL
MIC (S. aureus; Staphylococcus aureus, S. aureus strain 732, read-out: MIC): > 64 µg/mL
MIC Range (S. epidermidis; S. epidermidis, n = 6): >64 µg/mL
MIC (S. epidermidis; Staphylococcus epidermidis, S. epidermidis strain 8472): > 64 µg/mL
MIC (S. epidermidis; Staphylococcus epidermidis, S. epidermidis strain 8473): > 64 µg/mL
MIC (S. epidermidis; Staphylococcus epidermidis, S. epidermidis strain 8474): > 64 µg/mL
MIC (S. epidermidis; Staphylococcus epidermidis, S. epidermidis strain 8475): > 64 µg/mL
MIC (S. epidermidis; Staphylococcus epidermidis, S. epidermidis strain 8476): > 64 µg/mL
MIC (S. epidermidis; Staphylococcus epidermidis, S. epidermidis strain 8477): > 64 µg/mL
MIC50 (S. epidermidis; [11]): > 64 µg/mL
MIC90 (S. epidermidis; [11]): > 64 µg/mL
MIC50 ([5]; Staphylococcus, n = 12): > 64 µg/mL
MIC90 ([5]; Staphylococcus, n = 12): > 64 µg/mL
MIC Range ([5]; n = 12): >64 µg/mL
MIC Range ([5]; n = 12, listed as TERBINAFINE): >64 µg/mL
MIC Range ([5]; n = 12, listed as terbinafine): > 64 µg/mL
Structure (SMILES): CN(C/C=C/C#CC(C)(C)C)Cc1cccc2ccccc12 [Terbinafine, terbinafine]
MFC range (row MIC Range) (E. floccosum; E. floccosum, n = 6): 0.03 to 0.125 µg/mL
MFC (E. floccosum; E. floccosum strain 1666, read-out: MFC): 0.06 µg/mL (≈ 0.206 µM)
MFC (E. floccosum; E. floccosum strain 1798, read-out: MFC): 0.03 µg/mL (≈ 0.103 µM)
MFC (E. floccosum; E. floccosum strain 1925, read-out: MFC): 0.06 µg/mL (≈ 0.206 µM)
MFC (E. floccosum; E. floccosum strain 1926, read-out: MFC): 0.06 µg/mL (≈ 0.206 µM)
MFC (E. floccosum; E. floccosum strain 1961, read-out: MFC): 0.125 µg/mL (≈ 0.429 µM)
MFC (E. floccosum; E. floccosum strain 2165, read-out: MFC): 0.125 µg/mL (≈ 0.429 µM)
MFC (E. floccosum; E. floccosum, n = 6, read-out: MFC, row MIC50): 0.06 µg/mL (≈ 0.206 µM)
MFC (E. floccosum; E. floccosum, n = 6, read-out: MFC, row MIC90): 0.125 µg/mL (≈ 0.429 µM)
MFC range (row MIC Range) (T. mentagrophytes [3]; T. mentagrophytes, n = 6): 0.06 to 0.125 µg/mL
MFC (T. mentagrophytes [3]; T. mentagrophytes strain 2124, read-out: MFC): 0.125 µg/mL (≈ 0.429 µM)
MFC (T. mentagrophytes [3]; T. mentagrophytes strain 2125, read-out: MFC): 0.125 µg/mL (≈ 0.429 µM)
MFC (T. mentagrophytes [3]; T. mentagrophytes strain 2127, read-out: MFC): 0.06 µg/mL (≈ 0.206 µM)
MFC (T. mentagrophytes [3]; T. mentagrophytes strain 2128, read-out: MFC): 0.125 µg/mL (≈ 0.429 µM)
MFC (T. mentagrophytes [3]; T. mentagrophytes, n = 6, read-out: MFC, row MIC50): 0.125 µg/mL (≈ 0.429 µM)
MFC (T. mentagrophytes [3]; T. mentagrophytes, n = 6, read-out: MFC, row MIC90): 0.125 µg/mL (≈ 0.429 µM)
MFC Range (All dermatophytes [4]): 0.03 to 0.125 µg/mL
MFC (All dermatophytes [4]; read-out: MFC, row MIC50): 0.06 µg/mL (≈ 0.206 µM)
MFC (All dermatophytes [4]; read-out: MFC, row MIC90): 0.125 µg/mL (≈ 0.429 µM)

Reference: US20080220103A1, “METHOD FOR TREATING/CONTROLLING/KILLING FUNGI AND BACTERIA ON LIVING ANIMALS” (priority 2005, published 2008)
